Data published in ChEMBL document CHEMBL4052714, “Synthesis and antibacterial activity of novel 4″-O-(1-aralkyl-1,2,3-triazol-4-methyl-carbamoyl) azithromycin analogs” (2017).
≈ marks a conversion by molar mass, not a printed value.

Tests used:
Assay type in all cases: functional
[1] = test system: Streptococcus pneumoniae; assay: Antibacterial activity against erythromycin-susceptible Streptococcus pneumoniae ATCC 49619
[2] = test system: Streptococcus pneumoniae; assay: Antibacterial activity against erythromycin-resistant Streptococcus pneumoniae A22072 expressing mefA gene
[3] = test system: Pseudomonas aeruginosa; assay: Antibacterial activity against Pseudomonas aeruginosa ATCC 27853
[4] = test system: Staphylococcus aureus; assay: Antibacterial activity against erythromycin-susceptible Staphylococcus aureus ATCC 25923
[5] = test system: Streptococcus pyogenes; assay: Antibacterial activity against erythromycin-resistant Streptococcus pyogenes isolate R2
[6] = test system: Streptococcus pyogenes; assay: Antibacterial activity against erythromycin-susceptible Streptococcus pyogenes isolate S2
[7] = test system: Streptococcus pneumoniae; assay: Antibacterial activity against erythromycin-resistant Streptococcus pneumoniae B1 expressing ermB gene
[8] = test system: Escherichia coli; assay: Antibacterial activity against Escherichia coli ATCC 25922
[9] = test system: Streptococcus pneumoniae; assay: Antibacterial activity against erythromycin-resistant Streptococcus pneumoniae AB11 expressing ermB/mefA gene
[10] = test system: Staphylococcus aureus; assay: Antibacterial activity against methicillin-susceptible Staphylococcus aureus ATCC 29213

SMILES | MIC [1] [µg/mL] | MIC [2] [µg/mL] | MIC [3] [µg/mL] | MIC [4] [µg/mL] | MIC [5] [µg/mL] | MIC [6] [µg/mL] | MIC [7] [µg/mL] | MIC [8] [µg/mL] | MIC [9] [µg/mL] | MIC [10] [µg/mL]
CC[C@H]1OC(=O)[C@H](C)[C@@H](O[C@H]2C[C@@](C)(OC)[C@@H](OC(=O)NCc3cn(Cc4c(Cl)cccc4Cl)nn3)[C@H](C)O2)[C@H](C)[C@@H](O[C@@H]2O[C@H](C)C[C@H](N(C)C)[C@H]2O)[C@](C)(O)C[C@@H](C)CN(C)[C@H](C)[C@@H](OC(=O)NCc2ccccc2)[C@]1(C)O | 0.125 (≈ 0.107 µM) | 0.25 (≈ 0.215 µM) | 32 (≈ 27.5 µM) | 0.25 (≈ 0.215 µM) | 64 (≈ 54.9 µM) | < 0.002 | 0.25 (≈ 0.215 µM) | 32 (≈ 27.5 µM) | 0.25 (≈ 0.215 µM) | 16 (≈ 13.7 µM)
CC[C@H]1OC(=O)[C@H](C)[C@@H](O[C@H]2C[C@@](C)(OC)[C@@H](OC(=O)NCc3cn(Cc4ccc(Cl)cc4Cl)nn3)[C@H](C)O2)[C@H](C)[C@@H](O[C@@H]2O[C@H](C)C[C@H](N(C)C)[C@H]2O)[C@](C)(O)C[C@@H](C)CN(C)[C@H](C)[C@H]2OC(=O)O[C@@]21C | 1 (≈ 0.945 µM) | 1 (≈ 0.945 µM) | 64 (≈ 60.5 µM) | 4 (≈ 3.78 µM) | 32 (≈ 30.2 µM) | 0.125 (≈ 0.118 µM) | 4 (≈ 3.78 µM) | 128 (≈ 121 µM) | 2 (≈ 1.89 µM) | 32 (≈ 30.2 µM)
CC[C@H]1OC(=O)[C@H](C)[C@@H](O[C@H]2C[C@@](C)(OC)[C@@H](OC(=O)NCc3cn(C4CCCCC4)nn3)[C@H](C)O2)[C@H](C)[C@@H](O[C@@H]2O[C@H](C)C[C@H](N(C)C)[C@H]2O)[C@](C)(O)C[C@@H](C)CN(C)[C@H](C)[C@H]2OC(=O)O[C@@]21C | 1 (≈ 1.02 µM) | 1 (≈ 1.02 µM) | 64 (≈ 65.2 µM) | 16 (≈ 16.3 µM) | 32 (≈ 32.6 µM) | 0.25 (≈ 0.255 µM) | 8 (≈ 8.15 µM) | 128 (≈ 130 µM) | 4 (≈ 4.08 µM) | 64 (≈ 65.2 µM)
CC[C@H]1OC(=O)[C@H](C)[C@@H](O[C@H]2C[C@@](C)(OC)[C@@H](OC(=O)NCc3cn(Cc4cccc(F)c4)nn3)[C@H](C)O2)[C@H](C)[C@@H](O[C@@H]2O[C@H](C)C[C@H](N(C)C)[C@H]2O)[C@](C)(O)C[C@@H](C)CN(C)[C@H](C)[C@H]2OC(=O)O[C@@]21C | 1 (≈ 0.993 µM) | 4 (≈ 3.97 µM) | 64 (≈ 63.5 µM) | 4 (≈ 3.97 µM) | 128 (≈ 127 µM) | 0.125 (≈ 0.124 µM) | 4 (≈ 3.97 µM) | 128 (≈ 127 µM) | 0.5 (≈ 0.496 µM) | 32 (≈ 31.8 µM)
CC[C@H]1OC(=O)[C@H](C)[C@@H](O[C@H]2C[C@@](C)(OC)[C@@H](OC(=O)NCc3cn(Cc4ccc([N+](=O)[O-])cc4)nn3)[C@H](C)O2)[C@H](C)[C@@H](O[C@@H]2O[C@H](C)C[C@H](N(C)C)[C@H]2O)[C@](C)(O)C[C@@H](C)CN(C)[C@H](C)[C@H]2OC(=O)O[C@@]21C | 1 (≈ 0.967 µM) | 4 (≈ 3.87 µM) | 64 (≈ 61.9 µM) | 4 (≈ 3.87 µM) | 128 (≈ 124 µM) | 0.008 (≈ 0.00774 µM) | 4 (≈ 3.87 µM) | 64 (≈ 61.9 µM) | 0.5 (≈ 0.483 µM) | 32 (≈ 30.9 µM)
CC[C@H]1OC(=O)[C@H](C)[C@@H](O[C@H]2C[C@@](C)(OC)[C@@H](OC(=O)NCc3cn(Cc4ccc(Br)cc4)nn3)[C@H](C)O2)[C@H](C)[C@@H](O[C@@H]2O[C@H](C)C[C@H](N(C)C)[C@H]2O)[C@](C)(O)C[C@@H](C)CN(C)[C@H](C)[C@H]2OC(=O)O[C@@]21C | 1 (≈ 0.936 µM) | 1 (≈ 0.936 µM) | 64 (≈ 59.9 µM) | 2 (≈ 1.87 µM) | 32 (≈ 30 µM) | 0.06 (≈ 0.0562 µM) | 4 (≈ 3.74 µM) | 128 (≈ 120 µM) | 1 (≈ 0.936 µM) | 32 (≈ 30 µM)
CC[C@H]1OC(=O)[C@H](C)[C@@H](O[C@H]2C[C@@](C)(OC)[C@@H](OC(=O)NCc3cn(Cc4ccccc4Cl)nn3)[C@H](C)O2)[C@H](C)[C@@H](O[C@@H]2O[C@H](C)C[C@H](N(C)C)[C@H]2O)[C@](C)(O)C[C@@H](C)CN(C)[C@H](C)[C@H]2OC(=O)O[C@@]21C | 1 (≈ 0.977 µM) | 2 (≈ 1.95 µM) | 64 (≈ 62.5 µM) | 4 (≈ 3.91 µM) | 16 (≈ 15.6 µM) | 0.06 (≈ 0.0586 µM) | 8 (≈ 7.82 µM) | 128 (≈ 125 µM) | 4 (≈ 3.91 µM) | 32 (≈ 31.3 µM)
CC[C@H]1OC(=O)[C@H](C)[C@@H](O[C@H]2C[C@@](C)(OC)[C@@H](OC(=O)NCc3cn(Cc4ccccc4)nn3)[C@H](C)O2)[C@H](C)[C@@H](O[C@@H]2O[C@H](C)C[C@H](N(C)C)[C@H]2O)[C@](C)(O)C[C@@H](C)CN(C)[C@H](C)[C@@H](OC(=O)NCc2ccccc2)[C@]1(C)O | 0.125 (≈ 0.114 µM) | 0.25 (≈ 0.228 µM) | 32 (≈ 29.2 µM) | 0.016 (≈ 0.0146 µM) | 32 (≈ 29.2 µM) | < 0.002 | 0.25 (≈ 0.228 µM) | 16 (≈ 14.6 µM) | 0.25 (≈ 0.228 µM) | 16 (≈ 14.6 µM)
CC[C@H]1OC(=O)[C@H](C)[C@@H](O[C@H]2C[C@@](C)(OC)[C@@H](OC(=O)NCc3cn(Cc4ccc(Cl)cc4)nn3)[C@H](C)O2)[C@H](C)[C@@H](O[C@@H]2O[C@H](C)C[C@H](N(C)C)[C@H]2O)[C@](C)(O)C[C@@H](C)CN(C)[C@H](C)[C@@H](OC(=O)NCc2ccccc2)[C@]1(C)O | 0.25 (≈ 0.221 µM) | 0.125 (≈ 0.111 µM) | 32 (≈ 28.3 µM) | 0.25 (≈ 0.221 µM) | 32 (≈ 28.3 µM) | < 0.002 | 0.25 (≈ 0.221 µM) | 32 (≈ 28.3 µM) | 0.25 (≈ 0.221 µM) | 16 (≈ 14.1 µM)
